From US11084800B2 (Achillion Pharmaceuticals, Inc., priority 2017, dated 2021)

What follows are molecules tested against Human Factor D (Homo sapiens (Human), UniProt P00746) (assay: Human Factor D Assay). Settings: Factor D inhibition, assay of Example 10; read-out: IC5 (Stars).
Assay type: biochemical
Summary of the method: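 Serum-purified Factor D (80 nM final) preincubated 5 min at room temperature with compound in 50 mM Tris, 1 M NaCl, pH 7.5. Z-L-Lys-SBz and DTNB added at 100 μM each; A405 followed every 30 s for 30 min. IC50 from nonlinear regression of rates versus concentration.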

Sequence of Human Factor D (P00746 26-253): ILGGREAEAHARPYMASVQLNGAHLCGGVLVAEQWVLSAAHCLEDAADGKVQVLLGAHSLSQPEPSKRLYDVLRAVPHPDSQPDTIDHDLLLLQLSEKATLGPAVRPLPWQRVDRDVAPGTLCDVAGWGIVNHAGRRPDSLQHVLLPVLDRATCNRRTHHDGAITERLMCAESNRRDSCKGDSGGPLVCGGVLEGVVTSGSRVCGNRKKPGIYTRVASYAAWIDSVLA

Row | Structure (SMILES) | IC50 [nM]
1 | CC[C@@]12C[C@@H](C(=O)Nc3nc(Br)ccc3C)N(C(=O)Cn3nc(C(C)=O)c4cc(-c5cnc(C)nc5)ccc43)[C@@H]1C2 [Compound 286, (1R,3S,5R)-2-(2-(3-acetyl-5-(2-methylpyrimidin-5-yl)-1H-indazol-1-yl)acetyl)-N-(6-bromo-3-methylpyridin-2-yl)-5-ethyl-2-azabicyclo[3.1.0]hexane-3-carboxamide] | < 1000
2 | CC(=O)c1nn(CC(=O)N2[C@H](C(=O)Nc3nc(Br)ccc3C)C[C@@]3(CCS(C)(=N)=O)C[C@@H]23)c2c(C)cc(-c3cnc(C)nc3)cc12 (stereo partly drawn) [Compound 287, (1R,3S,5R)-2-(2-(3-acetyl-7-methyl-5-(2-methylpyrimidin-5-yl)-1H-indazol-1-yl)acetyl)-N-(6-bromo-3-methylpyridin-2-yl)-5-(2-(S-methylsulfonimidoyl)ethyl)-2-azabicyclo[3.1.0]hexane-3-carboxamide] | < 1000
3 | CC(=O)c1nn(CC(=O)N2[C@H](C(=O)Nc3nc(Br)ccc3C)C[C@@]3(CCS(C)(=O)=O)C[C@@H]23)c2c(C)cc(-c3cnc(C)nc3)cc12 [Compound 288, (1R,3S,5R)-2-(2-(3-acetyl-7-methyl-5-(2-methylpyrimidin-5-yl)-1H-indazol-1-yl)acetyl)-N-(6-bromo-3-methylpyridin-2-yl)-5-(2-(methylsulfonyl)ethyl)-2-azabicyclo[3.1.0]hexane-3-carboxamide] | < 1000
4 | CC(=O)c1nn(CC(=O)N2[C@H](C(=O)Nc3nc(Br)ccc3CN3C(C)(C)COCC3(C)C)C[C@@]3(C)C[C@@H]23)c2cnc(-c3cnc(C)nc3)cc12 [Compound 289, (1R,3S,5R)-2-(2-(3-acetyl-5-(2-methylpyrimidin-5-yl)-1H-pyrazolo[3,4-c]pyridin-1-yl)acetyl)-N-(6-bromo-3-((3,3,5,5-tetramethylmorpholino)methyl)pyridin-2-yl)-5-methyl-2-azabicyclo[3.1.0]hexane-3-carboxamide] | < 1000
5 | CC(=O)c1nn(CC(=O)N2[C@H](C(=O)Nc3nc(Br)ccc3C)C[C@@]3(CN4CCCC4)C[C@@H]23)c2c(C)cc(-c3cnc(C)nc3)cc12 [Compound 296, (1R,3S,5R)-2-(2-(3-acetyl-7-methyl-5-(2-methylpyrimidin-5-yl)-1H-indazol-1-yl)acetyl)-N-(6-bromo-3-methylpyridin-2-yl)-5-(pyrrolidin-1-ylmethyl)-2-azabicyclo[3.1.0]hexane-3-carboxamide] | < 1000
6 | CC(=O)c1nn(CC(=O)N2[C@H](C(=O)Nc3nc(Br)ccc3C)C[C@@]3(CNC(C)C)C[C@@H]23)c2c(C)cc(-c3cnc(C)nc3)cc12 [Compound 297, (1R,3S,5R)-2-(2-(3-acetyl-7-methyl-5-(2-methylpyrimidin-5-yl)-1H-indazol-1-yl)acetyl)-N-(6-bromo-3-methylpyridin-2-yl)-5-((isopropylamino)methyl)-2-azabicyclo[3.1.0]hexane-3-carboxamide] | < 1000
7 | COC(=O)[C@@H]1CCCN1C[C@@]12C[C@@H](C(=O)Nc3nc(Br)ccc3C)N(C(=O)Cn3nc(C(C)=O)c4cc(-c5cnc(C)nc5)cc(C)c43)[C@@H]1C2 [Compound 298, methyl (((1R,3S,5R)-2-(2-(3-acetyl-7-methyl-5-(2-methylpyrimidin-5-yl)-1H-indazol-1-yl)acetyl)-3-((6-bromo-3-methylpyridin-2-yl)carbamoyl)-2-azabicyclo[3.1.0]hexan-5-yl)methyl)-L-prolinate] | < 1000
8 | CC(=O)c1nn(CC(=O)N2[C@H](C(=O)Nc3nc(Br)ccc3C)C[C@@]3(CN4CCC[C@H]4C(=O)O)C[C@@H]23)c2c(C)cc(-c3cnc(C)nc3)cc12 [Compound 299, (((1R,3S,5R)-2-(2-(3-acetyl-7-methyl-5-(2-methylpyrimidin-5-yl)-1H-indazol-1-yl)acetyl)-3-((6-bromo-3-methylpyridin-2-yl)carbamoyl)-2-azabicyclo[3.1.0]hexan-5-yl)methyl)-L-proline] | < 1000
9 | CC(=O)c1nn(CC(=O)N2[C@H](C(=O)Nc3nc(Br)ccc3C)C[C@@]3(CNC(C)(C)C)C[C@@H]23)c2c(C)cc(-c3cnc(C)nc3)cc12 [Compound 300, (1R,3S,5R)-2-(2-(3-acetyl-7-methyl-5-(2-methylpyrimidin-5-yl)-1H-indazol-1-yl)acetyl)-N-(6-bromo-3-methylpyridin-2-yl)-5-((tert-butylamino)methyl)-2-azabicyclo[3.1.0]hexane-3-carboxamide] | < 1000
10 | CC(=O)c1nn(CC(=O)N2[C@H](C(=O)Nc3nc(Br)ccc3CN3C(C)(C)CCCC3(C)C)C[C@@]3(C)C[C@@H]23)c2ccc(-c3cnc(C)nc3)cc12 [Compound 302, (1R,3S,5R)-2-(2-(3-acetyl-5-(2-methylpyrimidin-5-yl)-1H-indazol-1-yl)acetyl)-N-(6-bromo-3-((2,2,6,6-tetramethylpiperidin-1-yl)methyl)pyridin-2-yl)-5-methyl-2-azabicyclo[3.1.0]hexane-3-carboxamide] | < 1000
11 | CC(=O)c1nn(CC(=O)N2C[C@@](F)(Cn3ccnn3)C[C@H]2C(=O)Nc2nc(Br)ccc2C)c2ccc(-c3cnc(C)nc3)cc12 [Compound 304, (2S,4R)-4-((1H-1,2,3-triazol-1-yl)methyl)-1-(2-(3-acetyl-5-(2-methylpyrimidin-5-yl)-1H-indazol-1-yl)acetyl)-N-(6-bromo-3-methylpyridin-2-yl)-4-fluoropyrrolidine-2-carboxamide] | < 1000
12 | CC(=O)c1nn(CC(=O)N2[C@H](C(=O)Nc3nc(Br)ccc3C)C[C@@]3(CN4CCOCC4)C[C@@H]23)c2c(C)cc(-c3cnc(C)nc3)cc12 [Compound 305, (1R,3S,5R)-2-(2-(3-acetyl-7-methyl-5-(2-methylpyrimidin-5-yl)-1H-indazol-1-yl)acetyl)-N-(6-bromo-3-methylpyridin-2-yl)-5-(morpholinomethyl)-2-azabicyclo[3.1.0]hexane-3-carboxamide] | < 1000
13 | CC(=O)c1nn(CC(=O)N2[C@H](C(=O)Nc3nc(Br)ccc3C)C[C@@]3(CN4CCC(F)(F)CC4)C[C@@H]23)c2c(C)cc(-c3cnc(C)nc3)cc12 [Compound 306, (1R,3S,5R)-2-(2-(3-acetyl-7-methyl-5-(2-methylpyrimidin-5-yl)-1H-indazol-1-yl)acetyl)-N-(6-bromo-3-methylpyridin-2-yl)-5-((4,4-difluoropiperidin-1-yl)methyl)-2-azabicyclo[3.1.0]hexane-3-carboxamide] | < 1000
14 | CC(=O)c1nn(CC(=O)N2[C@H](C(=O)Nc3nc(Br)ccc3C)C[C@@]3(CNC(C)(C)C)C[C@@H]23)c2ccc(-c3cnc(C)nc3)cc12 [Compound 307, (1R,3S,5R)-2-(2-(3-acetyl-5-(2-methylpyrimidin-5-yl)-1H-indazol-1-yl)acetyl)-N-(6-bromo-3-methylpyridin-2-yl)-5-((tert-butylamino)methyl)-2-azabicyclo[3.1.0]hexane-3-carboxamide] | < 1000
15 | CC(=O)c1nn(CC(=O)N2[C@H](C(=O)Nc3nc(Br)ccc3CN3CC4CCC3C4)C[C@@]3(C)C[C@@H]23)c2ccc(-c3cnc(C)nc3)cc12 (stereo partly drawn) [Compound 308, (1R,3S,5R)-N-(3-(2-azabicyclo[2.2.1]heptan-2-ylmethyl)-6-bromopyridin-2-yl)-2-(2-(3-acetyl-5-(2-methylpyrimidin-5-yl)-1H-indazol-1-yl)acetyl)-5-methyl-2-azabicyclo[3.1.0]hexane-3-carboxamide] | < 1000
